PubChem BioAssay AID1919015 (Molecular Pharmacology Branch, DTP, NCI, 2023)
Where “and” joins values, the source holds several entries; their conditions need not be identical. Identical values can stand only once.

Test system: OVCAR-5 complex spheroids with HUVEC/MSC, viability, % test/control
Assay: Anticancer human tumor OVCAR-5 cell line growth inhibition [AhR];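 further: spheroids exposed to compounds for 7 days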;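 on viability, T/C: 100% = DMSO vehicle control wells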
Conditions: for viability, T/C: stronger effect = lower value
Summary of the method: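 Agents were dosed in half-log steps down from roughly clinical Cmax, or from 10 microM where Cmax was unknown, alone and with AhR antagonists. Read-out: percent test/control growth of tumor spheroids containing HUVEC and MSC stromal cells.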

[1] = curve of first compound, second compound 0.1 µM
[2] = curve of first compound, second compound 0.316 µM
[3] = curve of first compound, second compound 1 µM
[4] = curve of first compound, second compound 3.16 µM
[5] = curve of first compound, second compound 10 µM
[6] = second compound 0.1 µM, first compound 0.00949 µM
[7] = second compound 0.1 µM, first compound 0.03 µM
[8] = second compound 0.1 µM, first compound 0.0949 µM
[9] = second compound 0.1 µM, first compound 0.3 µM
[10] = second compound 0.316 µM, first compound 0.00949 µM
[11] = second compound 0.316 µM, first compound 0.03 µM
[12] = second compound 0.316 µM, first compound 0.0949 µM
[13] = second compound 0.316 µM, first compound 0.3 µM
[14] = second compound 1 µM, first compound 0.00949 µM
[15] = second compound 1 µM, first compound 0.03 µM
[16] = second compound 1 µM, first compound 0.0949 µM
[17] = second compound 1 µM, first compound 0.3 µM
[18] = second compound 3.16 µM, first compound 0.00949 µM
[19] = second compound 3.16 µM, first compound 0.03 µM
[20] = second compound 3.16 µM, first compound 0.0949 µM
[21] = second compound 3.16 µM, first compound 0.3 µM
[22] = second compound 10 µM, first compound 0.00949 µM
[23] = second compound 10 µM, first compound 0.03 µM
[24] = second compound 10 µM, first compound 0.0949 µM
[25] = second compound 10 µM, first compound 0.3 µM
[26] = second compound 0.1 µM, first compound 0.0316 µM
[27] = second compound 0.1 µM, first compound 0.1 µM
[28] = second compound 0.316 µM, first compound 0.0316 µM
[29] = second compound 0.316 µM, first compound 0.1 µM
[30] = second compound 1 µM, first compound 0.0316 µM
[31] = second compound 1 µM, first compound 0.1 µM
[32] = second compound 3.16 µM, first compound 0.0316 µM
[33] = second compound 3.16 µM, first compound 0.1 µM
[34] = second compound 10 µM, first compound 0.0316 µM
[35] = second compound 10 µM, first compound 0.1 µM

In the case of CCc1c2c(nc3ccc(O)cc13)-c1cc3c(c(=O)n1C2)COC(=O)[C@]3(O)CC + CC(CO)NC(=O)c1cc(-c2ccc(Cl)cc2)nn(-c2cnn(C)c2)c1=O, the IC50 [1] is reported as 6.63 nM, the IC50 [2] is reported as 5.74 nM and the IC50 [3] is reported as 7.31 nM. The IC50 [4] was 5.58 nM, the IC50 [5] was 10.6 nM and the viability, T/C (second compound 0.1 µM, first compound 0.000949 µM) was 77.5%. The viability, T/C (second compound 0.1 µM, first compound 0.003 µM) was 55.8%, the viability, T/C [6] was 42.6% and the viability, T/C [7] was 37.8%. It also gave a viability, T/C [8] of 17.8%, a viability, T/C [9] of 6.98% and a viability, T/C (second compound 0.316 µM, first compound 0.000949 µM) of 76%. The viability, T/C (second compound 0.316 µM, first compound 0.003 µM) was 54%, the viability, T/C [10] was 43.9% and the viability, T/C [11] was 32.8%. It also gave a viability, T/C [12] of 18.7%, a viability, T/C [13] of 6.72% and a viability, T/C (second compound 1 µM, first compound 0.000949 µM) of 70.5%. It also gave a viability, T/C (second compound 1 µM, first compound 0.003 µM) of 54.6%, a viability, T/C [14] of 49.7% and a viability, T/C [15] of 35.9%. The viability, T/C [16] was 15.5%, the viability, T/C [17] was 7.35% and the viability, T/C (second compound 3.16 µM, first compound 0.000949 µM) was 56.8%. The viability, T/C (second compound 3.16 µM, first compound 0.003 µM) was 47.6%, the viability, T/C [18] was 48.5% and the viability, T/C [19] was 35.5%. It also gave a viability, T/C [20] of 14.7%, a viability, T/C [21] of 6.85% and a viability, T/C (second compound 10 µM, first compound 0.000949 µM) of 51.7%. It also gave a viability, T/C (second compound 10 µM, first compound 0.003 µM) of 51.4%, a viability, T/C [22] of 57.5% and a viability, T/C [23] of 34.5%. It also gave a viability, T/C [24] of 17.7% and a viability, T/C [25] of 7.22%.

Compound CCN(c1cc(-c2ccc(CN3CCOCC3)cc2)cc(C(=O)NCc2c(C)cc(C)[nH]c2=O)c1C)C1CCOCC1 + Cc1ccccc1N=Nc1ccc(NC(=O)c2ccnn2C)c(C)c1 has an IC50 [1] of over 3000 nM, an IC50 [2] of over 3000 nM and an IC50 [3] of over 3000 nM. For the same compound, the IC50 [4] was over 3000 nM, the IC50 [5] was over 3000 nM and the viability, T/C [6] was 105%. The viability, T/C [7] was 106%, the viability, T/C [8] was 102% and the viability, T/C [9] was 101%. The viability, T/C (second compound 0.1 µM, first compound 0.949 µM) was 95%, the viability, T/C (second compound 0.1 µM, first compound 3 µM) was 101% and the viability, T/C [10] was 107%. The viability, T/C [11] was 109%, the viability, T/C [12] was 107% and the viability, T/C [13] was 102%. For the same compound, the viability, T/C (second compound 0.316 µM, first compound 0.949 µM) was 102%, the viability, T/C (second compound 0.316 µM, first compound 3 µM) was 103% and the viability, T/C [14] was 112%. It also gave a viability, T/C [15] of 110%, a viability, T/C [16] of 111% and a viability, T/C [17] of 115%. For the same compound, the viability, T/C (second compound 1 µM, first compound 0.949 µM) was 107%, the viability, T/C (second compound 1 µM, first compound 3 µM) was 110% and the viability, T/C [18] was 115%. The viability, T/C [19] was 114%, the viability, T/C [20] was 115% and the viability, T/C [21] was 109%. It also gave a viability, T/C (second compound 3.16 µM, first compound 0.949 µM) of 109%, a viability, T/C (second compound 3.16 µM, first compound 3 µM) of 112% and a viability, T/C [22] of 106%. For the same compound, the viability, T/C [23] was 103%, the viability, T/C [24] was 104% and the viability, T/C [25] was 105%. The viability, T/C (second compound 10 µM, first compound 0.949 µM) was 99.9% and the viability, T/C (second compound 10 µM, first compound 3 µM) was 98.2%.

Work on Nc1ccccc1NC(=O)c1ccc(CNC(=O)OCc2cccnc2)cc1 + Cc1cncc(-c2nc(NCCc3c[nH]c4ccccc34)c3ncn(C(C)C)c3n2)c1 yielded an IC50 [1] of 834 nM, an IC50 [2] of 731 nM and an IC50 [3] of 724 nM. The IC50 [4] was 549 nM, the IC50 [5] was under 31.6 nM and the viability, T/C [26] was 86%. For the same compound, the viability, T/C [27] was 84.7%, the viability, T/C (second compound 0.1 µM, first compound 0.316 µM) was 69.5% and the viability, T/C (second compound 0.1 µM, first compound 1 µM) was 47.4%. For the same compound, the viability, T/C (second compound 0.1 µM, first compound 3.16 µM) was 19.9%, the viability, T/C (second compound 0.1 µM, first compound 10 µM) was 9.54% and the viability, T/C [28] was 86%. For the same compound, the viability, T/C [29] was 79.5%, the viability, T/C (second compound 0.316 µM, first compound 0.316 µM) was 66.8% and the viability, T/C (second compound 0.316 µM, first compound 1 µM) was 44.3%. It also gave a viability, T/C (second compound 0.316 µM, first compound 3.16 µM) of 20.1%, a viability, T/C (second compound 0.316 µM, first compound 10 µM) of 7.96% and a viability, T/C [30] of 80.4%. For the same compound, the viability, T/C [31] was 77.2%, the viability, T/C (second compound 1 µM, first compound 0.316 µM) was 68.8% and the viability, T/C (second compound 1 µM, first compound 1 µM) was 42.8%. It also gave a viability, T/C (second compound 1 µM, first compound 3.16 µM) of 16.6%, a viability, T/C (second compound 1 µM, first compound 10 µM) of 7.92% and a viability, T/C [32] of 71.2%. The viability, T/C [33] was 71.4%, the viability, T/C (second compound 3.16 µM, first compound 0.316 µM) was 62.7% and the viability, T/C (second compound 3.16 µM, first compound 1 µM) was 36%. For the same compound, the viability, T/C (second compound 3.16 µM, first compound 3.16 µM) was 13.5%, the viability, T/C (second compound 3.16 µM, first compound 10 µM) was 6.41% and the viability, T/C [34] was 10.4%. It also gave a viability, T/C [35] of 10.3%, a viability, T/C (second compound 10 µM, first compound 0.316 µM) of 13.1% and a viability, T/C (second compound 10 µM, first compound 1 µM) of 14.3%. It also gave a viability, T/C (second compound 10 µM, first compound 3.16 µM) of 2.83% and a viability, T/C (second compound 10 µM, first compound 10 µM) of 0.51%.

With Nc1ncn(C2CC(O)C(CO)S2)c(=O)n1 (configuration not stated) the viability, T/C (compound 0.000949 µM) was 103% and 101% and 99.6%, the viability, T/C (compound 0.003 µM) was 96.8% and 106% and 99.3% and the viability, T/C (compound 0.00949 µM) was 102% and 103% and 97.4%. The viability, T/C (compound 0.03 µM) was 99.8% and 99.5% and 105%, the viability, T/C (compound 0.0949 µM) was 91.7% and 90.7% and 99% and the viability, T/C (compound 0.3 µM) was 83.8% and 77.6% and 83.7%. It also gave an IC50 (curve of compound) of over 300 nM.

Compound Cn1ncnc1C1c2n[nH]c(=O)c3cc(F)cc(c23)NC1c1ccc(F)cc1 (configuration not stated) + CC(CO)NC(=O)c1cc(-c2ccc(Cl)cc2)nn(-c2cnn(C)c2)c1=O has an IC50 [1] of over 100 nM, an IC50 [2] of over 100 nM and an IC50 [3] of over 100 nM. It also gave an IC50 [4] of over 100 nM, an IC50 [5] of over 100 nM and a viability, T/C (second compound 0.1 µM, first compound 0.000316 µM) of 104%. The viability, T/C (second compound 0.1 µM, first compound 0.001 µM) was 105%, the viability, T/C (second compound 0.1 µM, first compound 0.00316 µM) was 105% and the viability, T/C (second compound 0.1 µM, first compound 0.01 µM) was 105%. It also gave a viability, T/C [26] of 104%, a viability, T/C [27] of 101% and a viability, T/C (second compound 0.316 µM, first compound 0.000316 µM) of 104%. For the same compound, the viability, T/C (second compound 0.316 µM, first compound 0.001 µM) was 110%, the viability, T/C (second compound 0.316 µM, first compound 0.00316 µM) was 106% and the viability, T/C (second compound 0.316 µM, first compound 0.01 µM) was 107%. For the same compound, the viability, T/C [28] was 105%, the viability, T/C [29] was 99.7% and the viability, T/C (second compound 1 µM, first compound 0.000316 µM) was 112%. The viability, T/C (second compound 1 µM, first compound 0.001 µM) was 114%, the viability, T/C (second compound 1 µM, first compound 0.00316 µM) was 112% and the viability, T/C (second compound 1 µM, first compound 0.01 µM) was 108%. It also gave a viability, T/C [30] of 112%, a viability, T/C [31] of 108% and a viability, T/C (second compound 3.16 µM, first compound 0.000316 µM) of 106%. For the same compound, the viability, T/C (second compound 3.16 µM, first compound 0.001 µM) was 103%, the viability, T/C (second compound 3.16 µM, first compound 0.00316 µM) was 103% and the viability, T/C (second compound 3.16 µM, first compound 0.01 µM) was 96.2%. It also gave a viability, T/C [32] of 101%, a viability, T/C [33] of 100% and a viability, T/C (second compound 10 µM, first compound 0.000316 µM) of 97.6%. The viability, T/C (second compound 10 µM, first compound 0.001 µM) was 97.8%, the viability, T/C (second compound 10 µM, first compound 0.00316 µM) was 99.5% and the viability, T/C (second compound 10 µM, first compound 0.01 µM) was 95.5%. For the same compound, the viability, T/C [34] was 93.5% and the viability, T/C [35] was 94.6%.
